# Square brackets hold non-standard residues; d marks the D form. Peptide text beside a SMILES is read from it. Nspe = C[C@H](NCC(=O)O)c1ccccc1; Nlys = NCCCCNCC(=O)O
# Experiments:
# B. subtilis ATCC 6633 = assay type: cell-based
# Method in brief: (§1)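 MICs determined by 2:1 serial broth microdilution in cation-adjusted Mueller-Hinton broth per CLSI M7-A6, using inoculum at 1 x 10^6 CFU/mL mixed 1:1 with peptoid solution. Three independent replicates, each with two parallel trials.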
# E. coli ATCC 35218 = assay type: cell-based
# Method in brief: as §1
# erythrocytes = test: Hemolytic activity (HD10/HD50); assay type: cell-based; details: erythrocytes
# From the text: Table 1 Characteristics of antimicrobial peptoids, screened for activity against B. subtilis and E. coli bacterial strains. | column: HD10 / HD50
# E. faecalis W61950 (VRE) = test: microbe, parasite or virus in culture; details: E. faecalis W61950 (VRE)
# Method in brief: (§2)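 Minimum inhibitory concentrations came from overnight 37°C cultures in Mueller Hinton medium seeded at 2–7 x 10^5 CFU/mL.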
# E. faecium T62764 (VRE) = test: microbe, parasite or virus in culture; details: E. faecium T62764 (VRE)
# Method in brief: as §2
# [1] = system: K. pneumonia 63575 (ESBL); test: microbe, parasite or virus in culture; details: K. pneumonia 63575 (ESBL)
# Method in brief: as §2
# P. aeruginosa 213 (MDR) = test: microbe, parasite or virus in culture; details: P. aeruginosa 213 (MDR)
# Method in brief: as §2
# P. aeruginosa 9 (MDR) = test: microbe, parasite or virus in culture; details: P. aeruginosa 9 (MDR)
# Method in brief: as §2
# [2] = system: P. aeruginosa H103 (wild type); test: microbe, parasite or virus in culture; details: P. aeruginosa H103 (wild type)
# Method in brief: as §2
# [3] = system: P. aeruginosa H1030 (MDR); test: microbe, parasite or virus in culture; details: P. aeruginosa H1030 (MDR)
# Method in brief: as §2
# P. maltophilia ATCC13637 = test: microbe, parasite or virus in culture; details: P. maltophilia ATCC13637
# Method in brief: as §2
# [4] = system: 20 bacterial strains (13 Gram-negative, 7 Gram-positive)
# Description: The MICs of test agents were measured using a modified broth micro-dilution method in Difco Mueller Hinton medium, on a panel of bacterial pathogens that were both susceptible and resistant to common antibiotics (S1 File). Briefly, serial dilutions were performed in 0.01% acetic acid containing 0.2% bovine serum albumin at 10-fold the desired final concentration. Ten μL of the 10-fold concentrated test reagents were added to each well of a 96-well polypropylene microtitre plate containing 90 μL of Mueller Hinton media per well. Bacteria were added to the plate from an overnight culture at a final concentration of 2–7 x 10^5 CFU/mL and incubated overnight at 37°C. The MIC is defined as the concentration at which no growth was observed.
# Screening of peptoid antimicrobial activity against a panel of multidrug resistant superbugs was done according to the protocol described in the manuscript. The bacterial strains used in this panel included; P. aeruginosa PAO1 strain H103 [1], P. maltophilia ATCC#13637, S. aureus ATCC#25923 [1], E. faecalis ATCC#29212 [2], and E. cloacae 218R, constitutively expressing Class C chromosomal β-lactamase, were from the Hancock lab strains collection. An MRSA clinical isolate was kindly provided by Anthony Chow (Vancouver General Hospital, Vancouver, Canada). Two Klebsiella pneumoniae and two E. coli clinical isolates expressing extended spectrum β-lactamases (ESBL) were kindly provided by George Zhanel (Health Sciences Centre, Winnipeg, Canada). Vancomycin-resistant clinical isolates of Enterococcus faecalis and E. faecium were obtained from Ana M. Paccagnella (BC Centre for Disease Control, Vancouver, Canada). Three clinical isolates (#9, #198 and #213) of multi-drug resistant P. aeruginosa, were kindly provided by Carlos Kiffer (University of São Paulo, Brazil). […] Three P. aeruginosa clinical isolates of the Liverpool epidemic strain (LES) (H1027, H1030 and LES400) were all kindly provided by Craig Winstanley (University of Liverpool, UK). […] All tested bacterial strains were categorized as biohazard level 2 pathogens.
# S. aureus (ATCC 25923) = test: Murine model of invasive S. aureus infection; assay type: in vivo, CD1 mice; details: mice, 4 mg/kg
# Description: Animal experiments were performed in accordance with University of British Columbia Care Ethics Committee approval and guidelines as per animal care certificate #A04-0020. Female CD1 mice (6–8 week old) were weighed, marked, and injected with 200 μL of S. aureus (ATCC 25923) ~10^9 CFU/mouse suspended in Mueller Hinton broth containing 5% mucin and injected intraperitoneally. Four hours after infection, animals were treated with 4 mg/kg or 100μg per mouse of peptoid 1 (experimental group; n = 10) or an equivalent volume of saline (control group; n = 10). All animals were monitored two hours after each injection step, they were also evaluated at the end of the working day and the next morning a couple of hours prior to the experimental endpoint. Humane endpoints criteria; immobilization and shaking, were put down but none of the test subjects were evaluated to reach these endpoints prior to the experimental endpoint. The mice were euthanized 24 hours post-infection using CO2. The peritoneal cavity was exposed and washed with 5 mL PBS. […] Plates were incubated overnight at 37°C and colonies were counted the following day. […] The statistical differences between peptide treated and naïve mice were assessed using PRISM® (GraphPad Software Inc., San Diego, CA) using contingency tables Chi-square test, with a confidence interval of 99%. […]
# [5] = Acute toxicity screen in healthy mice; assay type: in vivo; details: three healthy mice, 4 mg/kg (100 μg per mouse) intraperitoneally
# Description: This dosage was selected to be on the conservative end of the dosage range typically evaluated for AMPs (1 mg/kg to 24 mg/kg) in other animal studies. To screen for acute signs of toxicity, three healthy mice were injected intraperitoneally with 4 mg/kg (100 μg per mouse) of peptoid 1, and a second control group with an equivalent volume of saline.
structure (smiles),measurement,setting,value
"C[C@@H](c1ccccc1)N(CC(N)=O)C(=O)CN(C(=O)CN(CCCCN)C(=O)CN(C(=O)CN(C(=O)CN(CCCCN)C(=O)CN(C(=O)CN(C(=O)CN(CCCCN)C(=O)CN(C(=O)CN(C(=O)CNCCCCN)[C@@H](C)c1ccccc1)[C@@H](C)c1ccccc1)[C@@H](C)c1ccccc1)[C@@H](C)c1ccccc1)[C@@H](C)c1ccccc1)[C@@H](C)c1ccccc1)[C@@H](C)c1ccccc1 [Peptoid 1, H-(NLys-Nspe-Nspe)4-NH2] (H-[Nlys][Nspe][Nspe][Nlys][Nspe][Nspe][Nlys][Nspe][Nspe][Nlys][Nspe][Nspe]-NH2)",MIC B. subtilis,B. subtilis ATCC 6633,1.6 µM
same,MIC E. coli,E. coli ATCC 35218,6.3 µM
same,HD10 (hemolytic activity),erythrocytes; first value of HD10 / HD50 cell,21
same,HD50 (hemolytic activity),erythrocytes; second value of HD10 / HD50 cell,100
same,MIC,E. faecalis W61950 (VRE),8 µg/mL
same,MIC,E. faecium T62764 (VRE),2 µg/mL
same,MIC,[1],4 µg/mL
same,MIC,P. aeruginosa 213 (MDR),4 µg/mL
same,MIC,P. aeruginosa 9 (MDR),16 µg/mL
same,MIC,[2],2 µg/mL
same,MIC,[3],4 µg/mL
same,MIC,P. maltophilia ATCC13637,2 µg/mL
same,median MIC against all Gram-positive strains tested,[4]; 7 Gram-positive strains,2 µg/mL
same,number of pathogens with MIC ≤ 8 μg/mL,[4]; out of the 20 pathogens tested,19
same,toxicity,S. aureus (ATCC 25923),no medium-term toxicity
same,"acute signs of toxicity, 24 hours post-injection observation",[5],all mice appeared to be healthy and exhibited normal activity and no weight loss or abject morbidity

# Reference: PMC4744035, “In Vivo, In Vitro, and In Silico Characterization of Peptoids as Antimicrobial Agents” (PLoS ONE, 2016)
